Columns and labels:
HFDPCs = test: Proliferation of HFDPCs (MTT), Experimental Example 1; assay type: cell-based, human; settings: 48 hours, vs untreated cells
Source text: The activation effect by a glycoside of an oleanane-type triterpenoid was examined using dermal papilla cells of human hair follicles (HFDPCs) which are mesenchymal cells separated from the papilla of the scalp hair follicle of a normal human. As the glycoside of the oleanane-type triterpenoid (which may hereinafter be referred to as “saponin”), arganine D, arganine E, and butyroside D were used. A high proliferation rate of the HFDPCs is correlated with the acceleration of the hair growth cycle.
First, HFDPCs were seeded in a 96-well plate at […] and incubated at 37° C. in a humidified atmosphere of 5% CO2. As a culture medium, a culture medium for hair papilla cell growth to which growth factors (a bovine fetal serum, an insulin, a transferrin, a triiodothyronine, a bovine pituitary extract, or a cyproterone solution) had been added was used.
After 24 hours, the culture medium was exchanged with a culture medium containing each of various concentrations of each saponin, and the cells were incubated for 48 hours.
Subsequently, the cell proliferation was measured using 3-(4,5-dimethyl-thiazol-2-yl)-2,5-diphenyltetrazolium bromide (MTT). Specifically, an MTT reagent (5 mg/mL) was added to the cells and incubated for 8 hours, then 10% sodium dodecyl sulfate (SDS) was added thereto, and the cells were incubated overnight. Thereafter, the absorbance at 570 nm was measured using a microplate reader, and the cell proliferation was quantified as the proportion (%) of the absorbance to an absorbance of the untreated cells. In addition, the survival rate of cells was also measured by a trypan blue exclusion method.

dorsal skin [1] = test: Gene ontology (GO), GO enrichment and tissue-specific expression analysis of transcriptome, Experimental Example 7; assay type: in vivo, mouse; settings: 20th day
Experimental: Gene ontology (GO) analysis and GO enrichment analysis were performed based on the results of the transcriptome analysis in Experimental Example 6.
Subsequently, term enrichment analysis of the genes with expression increased specifically with respect to the skin tissue was performed. Using tissue-specific expression analysis (TSEA), genes related to the skin tissue were filtered, and functions that were specifically enriched in the maslinic acid treatment group and the tieghemelin treatment group and were not enriched in the minoxidil treatment group were selected.

C3H male mouse = test: Hair growth promoting effect in vivo, application to depilated dorsal skin, Experimental Example 5; settings: 150 μL of 1% applied to dorsal skin every day for 20 days
Experimental: The oleanane-type triterpenoid was applied to the dorsal skin of a mouse and the hair growth promoting effect was examined. Maslinic acid was used as the oleanane-type triterpenoid. In addition, for comparison, a group in which minoxidil was used and a control group in which only a solvent was applied were prepared.
FIG. 12 is a schematic view showing an experimental schedule. After acclimatization of a C3H male mouse, the dorsal skin was depilated with a shaver and a depilatory cream. Thereafter, 150 μL of 1% minoxidil (n=8), 1% maslinic acid (n=6), or a solvent (n=8) was applied to the mouse in each group every day for 20 days, and the mouse was observed over time.
It is known that the hair cycle of a mouse has three stages of an anagen, a catagen, and a telogen. During the anagen (the 1st day to the 16th day), the hair follicle grows into the deep subcutaneous part. In the catagen (the 17th day to the 19th day), the hair follicle stops growing and regresses to the upper subcutaneous part. In the telogen (the 20th day to the 29th day), the hair shaft is in a state where it can be lost at any time. It is known that the color of the dorsal skin of a mouse changes to pink, gray, and black due to the hair cycle. FIG. 13 is a view showing a change in the color of the dorsal skin of a mouse due to the hair cycle.

Iqcb1 = Iqcb1 expression from transcriptome / extended network analysis, Experimental Example 8; assay type: in vivo, mouse; settings: dorsal skin, 20th day, 1% applied daily
Experimental: (§1) Extended network analysis was performed based on the results of the transcriptome analysis in Experimental Example 6. FIGS. 20 to 22 are views showing the results of the extended network analysis. FIG. 20 is an analysis result obtained from a dataset of the minoxidil treatment group, FIG. 21 is an analysis result obtained from a dataset of the maslinic acid treatment group, and FIG. 22 is an analysis result obtained from a dataset of the tieghemelin treatment group. In FIGS. 20 to 22, a white circle indicates a gene with increased expression, and a black circle indicates a gene with decreased expression. In addition, the size of the circle indicates the magnitude of a change in expression level.
DDX58 is an innate immune receptor that senses viral nucleic acids in the cytoplasm and activates a downstream signal transduction cascade leading to the production of type I interferons or inflammatory cytokines. IQCB1 is a protein known to be involved in formation of cilium.

dorsal skin [2] = test: Fluorescence immunostaining of dorsal skin tissue sections, Experimental Example 10; assay type: in vivo, mouse; settings: 20th day
Source text: A mouse in each group of Experimental Examples 5 and 6 was euthanized on the 20th day, the dorsal skin was collected, and the tissue section was subjected to immunostaining.
FIG. 23 is a photomicrograph showing the results of detecting the expressions of β-catenin and K14 by fluorescence immunostaining. In addition, the nuclei were stained with 4′,6-diamidino-2-phenylindole (DAPI). The β-catenin is a hair growth promoting marker and is also a marker for the start of the anagen. K14 is an epidermal marker and is known to increase with the differentiation of hair follicle stem cells.
FIG. 24 is a photomicrograph showing the results of detecting the expression of VEGF by fluorescence immunostaining. In addition, the nuclei were stained with DAPI. VEGF is known to improve the vascularization of hair follicles, increase the size of hair follicles and hair, and promote the growth and circulation of hair follicles.

dorsal skin [3] = test: Transcriptome analysis and extended network analysis of dorsal skin, Experimental Examples 6 and 8; assay type: in vivo, mouse; settings: 20th day, 1% applied daily; maslinic acid group vs tieghemelin group
Experimental: A mouse in each group of Experimental Example 5 and a mouse in the group which had been subjected to the same treatment as in Experimental Example 5 using 1% tieghemelin (n=6) were euthanized on the 20th day, and the dorsal skin was collected and subjected to transcriptome analysis.
as §1

hair cycle-related genes = test: Fluctuation in expression of hair cycle-related genes from transcriptome, Experimental Example 9; assay type: in vivo, mouse; settings: dorsal skin, 20th day
Source text: A fluctuation in expression of the hair cycle-related genes was examined, based on the results of the transcriptome analysis in Experimental Example 6.

HFDPC [4] = test: Quantitative real-time RT-PCR of hair growth markers in HFDPC, Experimental Example 3; assay type: cell-based, human; settings: vs 0.1 M minoxidil (so in the source), 48 hours
HFDPC [5] = test: as above; assay type: cell-based, human; settings: 48 hours; for expression level of the FGF1 gene in the HFDPC / expression level of the ALPL gene in the HFDPC / expression level of the CTNNB1 gene in HFDPC: vs control
Experimental: The HFDPC was treated with butyroside D, and then the expression of the hair growth marker was confirmed by quantitative real-time RT-PCR.
As the hair growth markers, a CTNNB1 gene (β-catenin), an ALPL gene (alkaline phosphatase), and an FGF1 gene (fiblobrast growth factor 1) were examined. It is known that the β-catenin induces anagen of the hair cycle and promotes the proliferation of keratinocytes. ALPL is a representative hair growth marker in the hair papilla cells. FGF1 is a marker for morphogenesis of hair follicles.
HFDPCs were seeded in a 6-well plate at 5×10^4 cells/well and incubated at 37° C. for 24 hours. Subsequently, the culture medium was removed and exchanged with a culture medium including 0 (Control), 0.5, 5, and 10 nM of butyroside D. In addition, for comparison, cells treated with a culture medium including minoxidil (0.1 μM), which is an existing pharmaceutical product, were also prepared.
Subsequently, after 48 hours, the cells were washed with cold PBS and a total RNA was extracted using an ISOGEN kit (Nippon Gene Co., Ltd.). Next, the total RNA was quantified using a NanoDrop 2000 spectrophotometer (Thermo Fisher Scientific) and quantitative real-time RT-PCR analysis was performed.
First, using a SuperScript III reverse transcription kit (Thermo Fisher Scientific), a cDNA was synthesized from the extracted total RNA by a cycling protocol of 95° C. for 10 minutes, 40 cycles of 95° C. for 15 seconds, and 60° C. for 1 minute.
Subsequently, a real-time PCR was performed using a 7500 Fast Real-Time PCR system (Software 1.3.1, Thermo Fisher Scientific) and TaqMan probes specific for CTNNB1, ALPL, and FGF1. GAPDH was used as an endogenous control and the relative mRNA amount was calculated by applying a 2^−ΔΔCt method by comparison with GAPDH.

[6] = fluorescence immunostaining, dorsal skin

In the case of C[C@@H]1O[C@@H](O[C@H]2[C@H](OC(=O)[C@]34CCC(C)(C)C[C@H]3C3=CC[C@@H]5[C@@]6(C)C[C@H](O)[C@H](O[C@@H]7O[C@H](CO[C@@H]8O[C@H](CO)[C@@H](O)[C@H](O)[C@H]8O)[C@@H](O)[C@H](O)[C@H]7O)[C@@](C)(CO)[C@@H]6[C@H](O)C[C@@]5(C)[C@]3(C)CC4)OC[C@@H](O)[C@@H]2O)[C@H](O)[C@H](O)[C@H]1O[C@@H]1OC[C@@H](O)[C@H](O[C@@H]2OC[C@](O)(CO)[C@H]2O)[C@H]1O [arganine E], the “proliferation of HFDPCs” value (HFDPCs; 2 μM) is reported as “significantly promotes the proliferation”.
With Nc1cc(N2CCCCC2)nc(N)[n+]1[O-] [minoxidil, reference compound] the “number of genes with decreased expression common among the minoxidil, maslinic acid and tieghemelin treatment groups” value (dorsal skin [1]) was 316, the “number of genes with increased expression common among the minoxidil, maslinic acid and tieghemelin treatment groups” value (dorsal skin [1]) was 342 and the “influence on the body weight of the mouse” value (C3H male mouse) was “No influence on the body weight”.
C[C@@H]1O[C@@H](O[C@@H]2[C@@H](O)[C@H](O[C@@H]3[C@@H](O)[C@@H](O)[C@H](O[C@H]4[C@H](OC(=O)[C@]56CCC(C)(C)C[C@H]5C5=CC[C@@H]7[C@@]8(C)C[C@H](O)[C@H](O[C@@H]9O[C@H](C(=O)O)[C@@H](O)[C@H](O)[C@H]9O)[C@@](C)(CO)[C@@H]8[C@H](O)C[C@@]7(C)[C@]5(C)C[C@H]6O)OC[C@H](O)[C@@H]4O)O[C@H]3C)OC[C@H]2O)[C@H](O)[C@H](O)[C@H]1O [tieghemelin] was tested, and the “number of genes with decreased expression common among the minoxidil, maslinic acid and tieghemelin treatment groups” value (dorsal skin [1]) was 316, the “number of genes with decreased expression common between the minoxidil and tieghemelin treatment groups” value (dorsal skin [1]) was “Ninety-four” and the “number of genes with increased expression common among the minoxidil, maslinic acid and tieghemelin treatment groups” value (dorsal skin [1]) was 342. The “number of genes with increased expression common between the minoxidil and tieghemelin treatment groups” value (dorsal skin [1]) was “One-hundred-twenty-eight”, the “functions specifically enriched among skin-tissue genes with increased expression (TSEA)” value (dorsal skin [1]; functions not enriched in the minoxidil treatment group) was “the proliferation of keratinocytes and epithelial cells, the control of the MAPK cascade, the intercellular adhesion, and the activation of the cytokine receptor interaction” and the Iqcb1 expression (Iqcb1) was “upregulated”. For the same compound, the “expression level of Iqcb1 compared with the minoxidil treatment group” value (Iqcb1) was “increased more”, the “stage of the hair follicle from its shape” value (dorsal skin [2]; dorsal skin section) was “anagen (II)” and the “expression of K14” value (dorsal skin [2]; [6]) was “highly expressed”. The “expression of VEGF” value (dorsal skin [2]; [6]) was “highly expressed”, the “expression of β-catenin” value (dorsal skin [2]; [6]) was “highly expressed” and the “pattern of differentially expressed genes in the dorsal skins” value (dorsal skin [3]) was “showed the same pattern”. For the same compound, the “expression level of Aepb1” value (hair cycle-related genes) was “decreased”, the “expression level of KRT15” value (hair cycle-related genes) was “decreased” and the “expression of NF-κB” value (hair cycle-related genes) was “decreased”.
With arganine D the “proliferation of HFDPCs” value (HFDPCs; 2 μM) was “significantly promotes the proliferation”, the “proliferation of HFDPCs” value (HFDPCs; 5 μM) was “significantly promotes the proliferation” and the “proliferation of HFDPCs” value (HFDPCs; 10 μM) was “significantly promotes the proliferation”.
For butyroside D, the “effect of increasing the expression level of the ALPL gene compared with minoxidil positive control” value (HFDPC [4]) was “more than the effect of the treatment with 0.1 M minoxidil”, the “effect of increasing the expression level of the CTNNB1 gene compared with minoxidil positive control” value (HFDPC [4]) was “more than the effect of the treatment with 0.1 M minoxidil” and the “proliferation of HFDPCs” value (HFDPCs; 2 μM) was “significantly promotes the proliferation”. The “proliferation of HFDPCs” value (HFDPCs; 5 μM) was “significantly promotes the proliferation”, the “proliferation of HFDPCs” value (HFDPCs; 10 μM) was “significantly promotes the proliferation” and the “expression level of the FGF1 gene in the HFDPC” value (HFDPC [5]; 0.5 nM) was “significantly increased”. For the same compound, the “expression level of the ALPL gene in the HFDPC” value (HFDPC [5]; 5 nM) was “significantly increased”, the “expression level of the CTNNB1 gene in HFDPC” value (HFDPC [5]; 5 nM) was “significantly increased” and the “expression level of the FGF1 gene in the HFDPC” value (HFDPC [5]; 5 nM) was “significantly increased”. The “expression level of the ALPL gene in the HFDPC” value (HFDPC [5]; 10 nM) was “significantly increased”, the “expression level of the CTNNB1 gene in HFDPC” value (HFDPC [5]; 10 nM) was “significantly increased” and the “expression level of the FGF1 gene in the HFDPC” value (HFDPC [5]; 10 nM) was “significantly increased”. For the same compound, the “effect of increasing the expression level of the ALPL gene compared with minoxidil positive control (sentence in the FGF1 paragraph)” value (HFDPC [5]; vs 0.1 μM minoxidil) was “more than the effect of the treatment with 0.1 μM minoxidil”.

Source: patent US20250360071A1, “AGENT FOR INDUCING CILIUM” (MED R&D Co. Ltd, priority 2022, published 2025)
